Source: publication PMC12486458 (Journal of Enzyme Inhibition and Medicinal Chemistry, 2025)

System: U266 multiple myeloma cells
Test: MTT assay
Format: cell-based
Conditions: Homo sapiens, U-266, 72 h, read-out: U266 IC50

IC50: 280 ± 30 nM
Compound: CC[C@@H]1C(=O)N(C)c2cnc(Nc3ccc(C(=O)NC4CCN(C)CC4)cc3OC)nc2N1C1CCCC1 [BI 2536]
